Holding throughout (assay): growth of human tumour cells (NCI), 48 h
Assay [1] has as its system RXF 393 renal.
The subject of assay [2] is HCC-2998 colon.
Assay [3] relates to U251 CNS.
The subject of assay [4] is SF-268 CNS.
Assay [5] relates to HS 578T breast.
Assay [6] deals with UACC-62 melanoma.
The test system of assay [7] is SNB-75 CNS.
Assay [8] concerns NCI-H460 lung.
Assay [9] concerns SNB-19 CNS.
Assay [10] deals with SW-620 colon.
For assay [11], the system named is DU-145 prostate.
For assay [12], the system named is SK-MEL-28 melanoma.
Assay [13] concerns ACHN renal.
Assay [14] deals with A498 renal.
In assay [15] the test system is OVCAR-8 ovarian.
Assay [16] concerns HL-60(TB) leukemia.
In assay [17] the test system is NCI-H226 lung.
Assay [18] deals with SR leukemia.

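1) Cells in 96-well plates. 2) Compound, 48 h, 5 concentrations. 3) Linear interpolation between surrounding doses. 4) Unreached endpoint = highest concentration. TGI: total growth inhibition.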

Turning to `c1ccc(N2N=C3N(c4ccccc4)C2N3c2ccccc2)cc1`, the TGI in assay [1] is greater than 100 µM; in assay [2], 77.5 µM; in assay [3], greater than 100 µM; in [4], greater than 100 µM; in assay [5] it was greater than 100 µM; in assay [6], 80.2 µM. Besides, the TGI in [7] was 64.5 µM; in [8] it was greater than 100 µM; in assay [9], greater than 100 µM; in assay [10], greater than 100 µM; in assay [11], greater than 100 µM; in assay [12] it was 43.4 µM. Besides, the TGI in [13], in [14], in [15] and in [16] was greater than 100 µM in each case.
Turning to `CCCCn1c(C)c2c(c1C)C(=O)N(CCN1CCN(c3ccccc3Cl)CC1)C2=O`, the TGI was 72.5 µM in [2]; greater than 100 µM in assay [3]; 32.4 µM in assay [4]; greater than 100 µM in assay [5]; greater than 100 µM in assay [6]; 90.2 µM in assay [7]. Besides, the TGI in assay [8], in [9], in [10], in [11], in [13] and in [14] was greater than 100 µM each time. Further, the TGI in [15] is greater than 100 µM; in [17], greater than 100 µM; in [18], 58.7 µM; in assay [16] it was 51 µM.

The record behind these values is PubChem BioAssay (NCI).
